In article PMC7315563, “Bioactive fluorenes. Part III: 2,7-dichloro-9H-fluorene-based thiazolidinone and azetidinone analogues as anticancer and antimicrobial against multidrug resistant strains agents” (BMC Chemistry, 2020) one finds MIC and zone of inhibition data, which are given here for 3 molecules.

By MIC is commonly meant the smallest concentration in the dilution series that meets the test's criterion for growth inhibition. In general, zone of inhibition refers to the extent of the growth-free halo in a diffusion test.

Holding throughout (assay type): cell-based
One assay deals with P. aeruginosa. The assay is described as follows: MIC by broth microdilution method (resazurin end point). The following applies: Pseudomonas aeruginosa, 24 h at 37 °C. The method, then: (§1) Determination of Minimum inhibitory concentrations (MIC) of flourene derivatives was done using broth microdilution method. The procedure involved preparation of twofold dilutions of the fluorene derivatives ranging from (500–7.8 μg/mL) in sterile Mueller–Hinton broth inside the wells of 96-well microplate (Sarstedt, Germany). The inoculums of test strains prepared from fresh overnight cultures were adjusted to 0.5 McFarland standards, which equals to 1–2 × 10^8 CFU/mL for bacteria, the procedure was done according to CLSI 2012 [42]. […] For this assay the positive control agents were vancomycin (range: 0.7–50 μg/mL), gentamicin (range: 0.15–10 μg/mL) and the negative control was 1% DMSO.
(§2) For proper determination of the MIC end point resazurin dye has been used. A stock solution of resazurin sodium salt powder (Titan Biotech) was prepared at 0.02% (wt/vol) in distilled water, sterilized by filtration through a […] filter into a sterile light protected container then stored protected from light at 4 °C for up to 1 week, or at − […] for long term use, then 10–15% resazurin solution of the total volume in wells was added to each well and incubation for 1–4 h at 37 °C was done. A change in color from blue to pink indicates the growth of bacteria, and MIC was defined as the lowest concentration of the drug that prevented this change in color.

In another assay the test system is E. coli. The assay is described as above. As to conditions: Escherichia coli, 24 h at 37 °C. On the procedure:
as §1, §2

Another assay deals with K. pneumoniae. Described as above. The following applies: Klebsiella pneumoniae, 24 h at 37 °C. On the procedure: as §1, §2
In assay [1] the test system is Klebsiella pneumoniae (K. pneumoniae), multidrug resistant clinical isolate. The assay is described as follows: agar well diffusion assay. The following applies: 24 h, PC positive control Gentamicin 10 µg/mL. In outline:
(§3)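 Multidrug-resistant clinical isolates swabbed on Mueller–Hinton agar at about 1–5 × 10^5 CFU/mL; 0.5 cm wells received 50 μL compound at 500 μg/mL in 1% DMSO. Incubation 24 h, 37 °C for bacteria and C. albicans, 25 °C for Aspergillus; inhibition zone diameter measured in mm.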
In general terms: A growth-free zone around the sample is the usual read-out of agar diffusion tests.

The test system of assay [2] is Pseudomonas aeruginosa (P. aeruginosa), multidrug resistant clinical isolate. As to the kind of experiment: agar well diffusion assay. The following applies: 24 h, PC positive control Gentamicin 10 µg/mL. In outline:
as §3

For assay [3], the system named is Acinetobacter baumannii (A. baumannii), multidrug resistant clinical isolate. The assay is described as follows: agar well diffusion assay. The following applies: 24 h, PC positive control Gentamicin 10 µg/mL. An outline of the steps:
as §3

Assay [4] concerns Escherichia coli (E. coli), multidrug resistant clinical isolate. As to the kind of experiment: agar well diffusion assay. The following applies: 24 h, PC positive control Gentamicin 10 µg/mL. In outline:
as §3

The next assay relates to MRSA. The assay is described as follows: MIC by broth microdilution method (resazurin end point). The following applies: Staphylococcus aureus, 24 h. The method, then: as §1, §2
For orientation: Broth dilution looks for growth in wells or tubes with falling amounts of substance.

The next assay deals with S. aureus. The description is as above. As to conditions: Staphylococcus aureus, 24 h. The method, then:
as §1, §2

Assay [5] deals with methicillin-resistant Staphylococcus aureus (MRSA). As to the kind of experiment: agar well diffusion assay. The following applies: Staphylococcus aureus, 24 h, read-out: Mean zone of inhibition. In outline:
as §3

Assay [6] concerns Staphylococcus aureus (S. aureus), multidrug resistant clinical isolate. As to the kind of experiment: agar well diffusion assay. The following applies: Staphylococcus aureus, 24 h, read-out: Mean zone of inhibition. An outline of the steps:
as §3

Assay [7] deals with Streptococcus pneumoniae (S. pneumoniae), multidrug resistant clinical isolate. As to the kind of experiment: agar well diffusion assay. As to conditions: Streptococcus pneumoniae, 24 h, read-out: Mean zone of inhibition. In outline:
as §3

The subject of assay [8] is Aspergillus flavus (A. flavus). As to the kind of experiment: agar well diffusion assay. The following applies: 24 h, PC positive control fluconazole 25 µg/mL. An outline of the steps: as §3
In assay [9] the test system is Aspergillus niger (A. niger). As to the kind of experiment: agar well diffusion assay. The following applies: 24 h, PC positive control fluconazole 25 µg/mL. An outline of the steps:
as §3

The test system of assay [10] is Candida albicans (C. albicans). As to the kind of experiment: agar well diffusion assay. The following applies: 24 h, PC positive control fluconazole 25 µg/mL. An outline of the steps: as §3

Molecules are shown by their SMILES. Values after ≈ are worked out from the molar mass of the structure shown.

As for `CNC(C)C1CCC(N)C(OC2C(N)CC(N)C(OC3OCC(C)(O)C(NC)C3O)C2O)O1` (stereo not drawn) [Gentamicin, reference compound], the MIC in the assay on P. aeruginosa, against E. coli and in the assay with K. pneumoniae was 0.3 µg/mL (≈ 0.628 µM) in each case. Moreover, the zone of inhibition at 10 µg/mL was 20 mm in assay [1], 30 mm in assay [2], 20 mm in assay [3] and 28 mm in assay [4].

In the case of `CN[C@H](CC(C)C)C(=O)N[C@H]1C(=O)N[C@@H](CC(N)=O)C(=O)N[C@H]2C(=O)N[C@H]3C(=O)N[C@H](C(=O)N[C@H](C(=O)O)c4cc(O)cc(O)c4-c4cc3ccc4O)[C@H](O)c3ccc(c(Cl)c3)Oc3cc2cc(c3O[C@@H]2O[C@H](CO)[C@@H](O)[C@H](O)[C@H]2O[C@H]2C[C@](C)(N)[C@H](O)[C@H](C)O2)Oc2ccc(cc2Cl)[C@H]1O` [Vancomycin, reference compound], the MIC with MRSA and in the assay with S. aureus was 0.7 µg/mL (≈ 0.483 µM) each time. Also, the zone of inhibition at 50 µg/mL in assay [5] is 26 mm; in assay [6] it was 28 mm; in [7], 20 mm.

On to `OC(Cn1cncn1)(Cn1cncn1)c1ccc(F)cc1F` [fluconazole], for which the zone of inhibition at 25 µg/mL in assay [8] came out at 18 mm; in [9], 18 mm; in [10], 20 mm.
